One may read the IC50 as the concentration at which inhibition is half-maximal. High values mean a need for much substance, low ones inhibition by little substance.

For 1 compound, IC50 results are on record in PMC9321339, “Characterization in Inhibitory Effectiveness of Carbamazepine in Voltage-Gated Na^+ and Erg-Mediated K^+ Currents in a Mouse Neural Crest-Derived (Neuro-2a) Cell Line” (International Journal of Molecular Sciences, 2022).

Like-named read-outs stand apart in the source and are kept apart here.

The test system of the assay is T1, voltage-gated Na+ (NaV) channels / INa in Neuro-2a cells (mainly NaV1.2, 1.3, 1.4 and 1.7).
T1 construct: gene Scn2a
It counts as cell-based. The note with it: step -100 to -10 mV, 30 ms, Ca2+-free Tyrode with 10 mM TEA, 0.5 mM CdCl2, 20-25 °C.

Consider `NC(=O)N1c2ccccc2C=Cc2ccccc21` [Carbamazepine, 5H-dibenzo[b,f]azepine-5-carboxamide], for which the IC50 is, setting by setting: (late (sustained) INa(L)) 18 µM; (peak (transient) INa(T)) 56 µM.
